Test results published in publication PMC12113707, “Microwave Assisted Synthesis of Antioxidant Dihydro-Pyrazole Hybrids as Possible Lipoxygenase Inhibitors” (Molecules, 2025).

What was measured:
[1] = Experimental lipophilicity RM by reverse phase thin layer chromatography (RP-TLC); format: physicochemical; conditions: methanol-water mobile phase
Procedure: Lipophilicity is a main physicochemical parameter for bioactive molecules, linking solubility, ligand-target binding interactions, membrane permeability absorption, distribution, bioavailability, metabolism, elimination and toxicological effects (ADMET), playing an important role in biological activity. The experimental values of lipophilicity RM were determined by reverse phase thin layer chromatography. For the experimental determination of lipophilicity the hydrophilic-lipid phase system is a mixture of methanol- water (90/10%). The theoretical lipophilicity values are determined by the Bioloom program (http://biobyte.com/bb/prod/bioloom.html, accessed on 8 April 2024) (Table 1). According to the calculated clog P values, the most lipophilic compounds are 3c, 3d and 3f while the less lipophilic ones are compounds 5a and 5b.
Melting points were determined on a MEL-Temp II (Lab. Devices, Holliston, MA, USA). In vitro tests were carried out using a UV-Vis spectra and recorded on a Perkin-Elmer 554 double-beam spectrophotometer (Perkin-Elmer Corporation Ltd., Lane Beaconsfield, Bucks, UK). Infrared spectra (KBr pellets) were recorded with Perkin-Elmer 597 spectrophotometer (Perkin-Elmer Corporation Ltd., Lane Beaconsfield, Bucks, UK). The ^1H […] Magnetic Resonance (^1H-NMR) spectra were acquired on an Agilent 500/54 (DD2) at 500 MHz in CDCl3 using tetramethylsilane as an internal standard. Agilent 500/54 (DD2) ^13C NMR spectra were acquired at 125 MHz in CDCl3 solutions with tetramethylsilane serving as an internal reference. Coupling constants J are expressed in Hz, and chemical shifts are reported in ppm. Thermo Fisher Scientific Inc., Waltham, MA, USA, used MeOH as the solvent to calculate mass spectra using an LC-PDA-MS Thermo Finnigan system (LC Pump Plus, Autosampler, Surveyor PDA Plus Detector) interfaced with an ESI MSQ Plus (Thermo Finnigan). Thin-layer chromatography using 5554 F254 Silica gel/TLC cards (Merck and Fluka Chemie GmbH Buchs, Steinheim, Switzerland) was used to monitor the reaction progress. Silica gel 60 F254 plates with a diameter of 2 mm were utilized for preparative thin layer chromatography (prep TLC) by Merck KgaA (ICH078057). Merck (20 × 20 cm) plates were used for the experimental assessment of the lipophilicity using reverse phase thin-layer chromatography (RP-TLC) TLC-Silica gel 60 F254 DC Kieselgel.
In this experiment, TLC silica gel 60 F254 1.05715.0001 commercial glass plates from Merck were used. The plates were first immersed in a 5% v/v solution of liquid paraffin in petroleum ether and left for 90 s to become completely impregnated with the stable lipophilic phase. They were then activated by standing for 30 min in an oven at 40 °C and kept there until the time of use. A 70% v/v MeOH/H2O mixture was used as the mobile phase. The mobile phase was saturated with a few drops of liquid paraffin before being used. The spots of the compounds were placed on the plate at a distance of 2 cm from the edges of the plate and also from each other. The development of the spots on the plates was carried out in closed chromatography chambers where the atmosphere is saturated with the mobile phase at room temperature. At the end of development, the solvent-formed front was marked and the plates are dried at 80 °C for about 20–30 min. The appearance of the spots was made under an ultraviolet light lamp. The Rf values were the average of 5–6 measurements for each compound and assuming that the compounds will have been rotated to different positions on the plates. The RM values were calculated from the corresponding Rf values according to the equation [67].RM = log [(1/Rf) − 1](1)

[2] = Interaction with the stable free radical DPPH (reducing activity); conditions: 517 nm
Procedure: In general, the compounds present moderate to good antioxidant activity. It seems that the dibenzylacetones present satisfactory antioxidant activity compared to the hybrids at 60 min (1b, 1d and 1f).
The tested compounds (0.1 mM final concentration) dissolved in DMSO were incubated with a solution of DPPH in absolute ethanol in absence of light. The absorbance at 20 and 60 min at 517 nm was recorded at room temperature. NDGA was used as the reference compound.

[3] = Inhibition of AAPH-induced linoleic acid peroxidation; conditions: 37 °C, 234 nm
Procedure: The ability of the compounds to inhibit AAPH-induced peroxidation of linoleic acid is another assay to investigate the antioxidant properties of the compounds. Azo compounds such as 2,2′-azobis dihydrochloride (2-amidinopropane) (AAPH) are capable of generating free radicals through spontaneous decomposition at 37 °C. The R- radicals react immediately with air-oxygen to produce peroxy radicals. AAPH was therefore used as the radical initiator and sodium linoleate as substrate subjected to peroxidation. Measurements were carried out at 234 nm using a UV/V is spectrophotometer. Dichalcone 1i substituted with two phenyl groups presents the lowest lipophilicity. […] Therefore, hydrophilic substituents offer an increase in activity.
The interaction of free radicals with cell membrane lipids induces free radical chain reactions, a process called lipid peroxidation. 930 μL of a phosphate buffer solution (0.05 M, pH = 7.4), 10 μL of the sodium linolate solution (16 mM in a buffer solution of Tris-HCl pH = 9) and 10 μL of the tested compounds (stock solutions 100 μΜ) were mixed and the oxidative procedure started after the addition of 50 μL AAPH at 37 °C under air conditions. The conjugated diene’s absorbance was measured at 234 nm at a thermostable spectrophotometer (37 °C) according to previous publication.

[4] = molecular target: T1, soybean lipoxygenase (SLOX-1) (Glycine max, UniProt P08170); experiment: Inhibition of soybean lipoxygenase in vitro; format: biochemical; conditions: pH 9, sodium linoleate substrate; for inhibition at 100 µM: read-out: LOX% Inhibition, 100 μM (±SD); for IC50: read-out: LOX IC50 (μM) (±SD)
T1 construct: 200 μL of plant-derived lipoxygenase solution (1:9 × 10^−4 w/v, in saline); purchased Sigma Chemical, Co; host or cells: soybean (plant-derived)
T1 sequence (P08170 1-839): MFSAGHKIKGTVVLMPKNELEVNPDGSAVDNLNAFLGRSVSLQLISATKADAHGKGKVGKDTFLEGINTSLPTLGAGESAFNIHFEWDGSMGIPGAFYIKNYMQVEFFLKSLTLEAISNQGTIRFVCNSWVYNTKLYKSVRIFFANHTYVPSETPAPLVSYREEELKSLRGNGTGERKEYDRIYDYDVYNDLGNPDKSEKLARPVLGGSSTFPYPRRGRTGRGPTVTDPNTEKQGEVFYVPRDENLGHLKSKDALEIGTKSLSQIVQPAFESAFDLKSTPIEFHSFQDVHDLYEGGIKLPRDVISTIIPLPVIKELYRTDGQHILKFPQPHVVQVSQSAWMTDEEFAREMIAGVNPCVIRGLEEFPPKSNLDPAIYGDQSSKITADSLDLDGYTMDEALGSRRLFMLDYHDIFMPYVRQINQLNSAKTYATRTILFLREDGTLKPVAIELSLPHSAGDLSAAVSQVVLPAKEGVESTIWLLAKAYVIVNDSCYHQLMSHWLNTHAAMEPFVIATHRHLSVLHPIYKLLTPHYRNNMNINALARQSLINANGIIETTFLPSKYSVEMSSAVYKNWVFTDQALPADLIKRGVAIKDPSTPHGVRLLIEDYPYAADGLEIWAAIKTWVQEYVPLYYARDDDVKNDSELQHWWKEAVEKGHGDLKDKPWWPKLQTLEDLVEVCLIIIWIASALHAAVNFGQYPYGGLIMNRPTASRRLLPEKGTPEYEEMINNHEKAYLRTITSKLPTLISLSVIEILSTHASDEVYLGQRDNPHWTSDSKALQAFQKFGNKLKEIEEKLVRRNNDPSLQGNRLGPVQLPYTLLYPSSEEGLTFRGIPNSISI
Procedure: Soybean lipoxygenase SLOX-1 at pH 9 is used in vitro. During this assay linoleic acid sodium salt is converted to the corresponding 13-hydroperoxide. The reaction is recorded photometrically at 234 nm using the UV-based enzyme assay. […] It is known that soybean LOX inhibitory activity induced by NSAIDs is qualitatively quite similar to the inhibition observed on the rat mast cells LOX and this assay may be used as a qualitative or semi-quantitative screen for such activity.
To a quartz cell, add 790 μL of Tris-HCl pH = 9.0 buffer, 200 μL of plant-derived lipoxygenase solution (1:9 × 10^−4 w/v, in saline), 10 μL of the test compound solution and 100 μL of sodium linoleate solution (3 mM concentration). The absorbance was measured at 234 nm, where the change in absorbance due to the conversion of linoleic acid to […] was recorded. A solution of 790 μL of Tris-HCl pH = 9.0 buffer, 200 μL of a plant-derived lipoxygenase solution (1:9 × 10^−4 w/v, in saline), 10 μL of DMSO and 100 μL of sodium linoleate solution (3 mM concentration) was used as a control.

SMILES | RM ± SD [1] | RA%, 100 μM, 20 min (±SD) [2] | AAPH% Inhibition, 100 μM (±SD) [3] | inhibition at 100 µM [4] | RA%, 100 μM, 60 min (±SD) [2] | IC50 [4]
N#Cc1ccc(N2N=C(/C=C/c3ccc(Br)cc3)CC2c2ccc(Br)cc2)cc1 (stereo not drawn) [Compound 4c, (E)-4-(5-(4-bromophenyl)-3-(4-bromostyryl)-4,5-dihydro-1H-pyrazol-1-yl)-benzonitrile] | 0.94 ± 0.069 | 2 ± 0.1% | 59 ± 0.2% | 17 ± 1.2% |  | 
N#Cc1ccc(N2N=C(/C=C/c3ccc(Cl)cc3)CC2c2ccc(Cl)cc2)cc1 (stereo not drawn) [Compound 4d, (E)-4-(5-(4-chlorophenyl)-3-(4-chlorostyryl)-4,5-dihydro-1H-pyrazol-1-yl)-benzonitrile] | 0.85 ± 0.068 | 23 ± 0.3% | 51 ± 0.2% |  | 2 ± 0.1% | 85 µM
CN(C)c1ccc(/C=C/C2=NN(c3ccc(C#N)cc3)C(c3ccc(N(C)C)cc3)C2)cc1 (stereo not drawn) [Compound 4e, (E)-4-(5-(4-(dimethylamino)phenyl)-3-(4-(dimethylamino)styryl)-4,5-dihydro-1H-pyrazo-1yl)-benzonitrile] | 0.49 ± 0.029 | 2 ± 0.1% | 74 ± 0.9% | 6 ± 0.5% | 2 ± 0.2% | 
NC(=O)N1N=C(/C=C/c2ccc(F)cc2)CC1c1ccc(F)cc1 (stereo not drawn) [Compound 5b, (E)-5-(4-fluorophenyl)-3-(4-fluorostyryl)-4,5-dihydro-1H-pyrazole-1-carboxamide] | 0.06 ± 0.004 | 19 ± 0.1% | 8 ± 0.2% | 39 ± 0.7% |  | 
NC(=O)N1N=C(/C=C/c2ccc(Cl)cc2)CC1c1ccc(Cl)cc1 (stereo not drawn) [Compound 5d, (E)-5-(4-chlorophenyl)-3-(4-chlorostyryl)-4,5-dihydro-1H-pyrazole-1-carboxamide] | 0.50 ± 0.043 |  | 33 ± 0.5% |  | 34 ± 0.5% | 80 µM
CN(C)c1ccc(/C=C/C2=NN(C(N)=O)C(c3ccc(N(C)C)cc3)C2)cc1 (stereo not drawn) [Compound 5e, (E)-5-(4-dimethylaminophenyl)-3-(4-dimethylaminostyryl)-4,5-dihydro-1H-pyrazole-1-carboxamide] | 0.28 ± 0.019 | 20 ± 0.1% | 61 ± 0.9% | 19 ± 0.4% |  | 
CC(=O)N1N=C(/C=C/c2ccccc2)CC1c1ccccc1 (stereo not drawn) [Compound 6a, (E)-5-phenyl-3-styryl-4,5-dihydro-1-H-pyrazol-1-ethan-1-one] | 0.17 ± 0.014 | 11 ± 0.6% | 22 ± 1% | 24 ± 0.8% |  | 
CC(=O)N1N=C(/C=C/c2ccc(Cl)cc2)CC1c1ccc(Cl)cc1 (stereo not drawn) [Compound 6d, (E)-5-(4-chlorophenyl)-3-(4-chlorostyryl)-4,5-dihydro-1-H-pyrazol-1-ethan-1-one] | 0.65 ± 0.048 |  | 67 ± 0.4% | 42 ± 2.7% | 8 ± 0.7% | 
CC(=O)N1N=C(/C=C/c2ccc(N(C)C)cc2)CC1c1ccc(N(C)C)cc1 (stereo not drawn) [Compound 6e, (E)-5-(4-dimethylaminophenyl)-3-(4-dimethylaminostyryl)-4,5-dihydro-1-H-pyrazol-1-ethan-1-one] | 0.47 ± 0.036 | 7 ± 0.5% | 56 ± 0.3% |  | 12 ± 1% | 40 µM
